Results on one molecule are retold here after patent US20110306570A1, “Na/K-Atpase Expression as an Indicator for the Treatment of Cancer” (UNIVERSITY OF TOLEDO, priority 2008, published 2011).

The subject of one experiment is LLC-PK1 cells. The experiment can be described thus: MTT cell growth assay, LLC-PK1 cells. It is filed as cell-based, pig. As to the method:
(§1) FIG. 1A: LLC-PK1 cells, BT20 cells, and DU145 cells were subcultured in 96-well plates (10,000 cells/well) and serum starved. […] Cells were solublized by adding 100 μl/well detergent provided by ATCC after 90 min of incubation and OD570 was then measured.
Cell growth was then measured using MTT assay.
(§2) MTT assay for measuring cell proliferation: Cells were sub-cultured in 96 well plates at 10,000 cells/well in 100 μl culture medium. […] Ten μl MTT reagent (3-4,5-dimethylthiazol-2-yl)-2,5-diphenyltetrazolium bromide) was added to each well for 90 min. The formazan crystal was dissolved with detergent and the OD value was measured at 570 nm.
For orientation: Tetrazolium assays rely on reduction of a dye to a coloured formazan, in cell work by metabolically active cells.

In experiment [1] the test system is BT20 cells. Kind of experiment: MTT cell growth assay, BT20 cells. It counts as cell-based, human. The settings on record: 24 h. As for the experimental part:
as §1, §2

Another experiment deals with A4-11 cells. The experiment can be described thus: MTT cell growth assay, Na/K-ATPase knock-down A4-11 cells. The settings on record: ouabain, 16 h. It is filed as cell-based, pig. As to the method: as §2
A further experiment relates to C2-9 cells. Kind of experiment: MTT cell growth assay, caveolin-1 knock-down C2-9 cells. It counts as cell-based, pig. The settings on record: C2-9 caveolin-1 knockdown cells. As to the method:
as §2

Experiment [2] deals with BT20 cells. The experiment can be described thus: Cell growth curve (cell counting), BT20 cells. It counts as cell-based, human. As to the method: (§3) FIG. 1B: The above three cell lines were subcultured in 12-well plates (50,000 cells/well) and serum starved.
(§4) Cell growth curve and cell cycle measurement: Cells were sub-cultured in 12 well plates at 50,000/well in 1 ml culture medium for 24 h. […] At each indicated time point, three wells of control or treated cells were trypsinized and counted. For cell cycle measurement, cells were trypsinized and re-suspended in Citrate buffer (8.55% sucrose, 1.18% Na citrated, 5% DMSO, pH 7.6), and stained with propidium iodide (PI). The stained cells were then analyzed by Flow Cytometry.

Another experiment relates to DU145 cells. The experiment can be described thus: Cell growth curve (cell counting), DU145 cells. It is filed as cell-based, human. To be noted: 10 nM ouabain. As to the method:
as §3, §4

The target in experiment [3] is T1, Na/K-ATPase α1 (Mus musculus, UniProt Q8VDN2).
T1 construct: endogenous in cells; host or cells: SYF cells; SYF cells rescued by c-Src
The experiment can be described thus: Na/K-ATPase α1 expression, SYF cells. The settings on record: SYF cells (Src, Yes, Fin knocked out), 0.5 and 1.0 μM ouabain. It is filed as cell-based. The source says:
(§5) To further understand the molecular mechanism of ouabain-induced up-regulation of α1, the inventors first addressed the role of Src.

Experiment [4] concerns the target T1, Na/K-ATPase α1. The experiment can be described thus: Na/K-ATPase α1 expression, SYF cells rescued by c-Src. It is filed as cell-based. The settings on record: 0.5 and 1.0 μM ouabain.
Source text: as §5

A further experiment concerns Na/K-ATPase β1. Kind of experiment: Na/K-ATPase β1 expression by Western blot, LLC-PK1 cells. It is filed as cell-based, pig. To be noted: 10 nM ouabain, 24 h. The text has this: Na/K-ATPase, but also in the formation of tight junctions and in suppression of tumor cell growth.
A general note: Immunoblotting shows a protein as a band on a membrane.

The subject of experiment [5] is Na/K-ATPase α1 mRNA. Kind of experiment: Na/K-ATPase α1 mRNA by RT-PCR, BT20 cells. It counts as cell-based, human. The settings on record: 10 nM ouabain, 24 h. As for the experimental part: (§6) Total RNA was extracted and applied for RT-PCR to probe Na/K-ATPase α1 as described in the Experimental Procedures section.
(§7) Quantitative RT-PCR: The cells were seeded in 6-cm dishes and serum-starved for 24 h after the confluence reached 90%. […] Total RNA was extracted using TRIzol and subjected to quantitative RT-PCR analysis. The assays were performed on the AB 7500 real time PCR system with the following protocol: 1 cycle (6 min at 95° C.), 40 cycles (30 s at 95° C., 30 s at 52° C., 30 s at 72° C., and 1 min at 85° C.), followed by a dissociation stage to ensure a single product. The reactions are in a total volume of 25 μl, including 1.25 µl of Sybr Green (Invitrogen), 0.125 µl of DNA polymerase (Denville), 2.5 µl of dNTP (Invitrogen), 10 ng of cDNA. Primer pairs were used at 5 μM concentration, and the sequences are:
(§8) The relative Na/K-ATPase al gene expression was calculated by comparative threshold (CT) method (ΔΔCT). To normalize the difference amounts of cDNA, GAPDH was used as an internal control.

In experiment [6] the test system is Na/K-ATPase α1 mRNA. The experiment can be described thus: Na/K-ATPase α1 mRNA by RT-PCR, DU145 cells. It counts as cell-based, human. To be noted: 10 nM ouabain, 24 h. As to the method:
as §6, §7, §8

In experiment [7] the test system is Akt. The experiment can be described thus: Akt phosphorylation (pAkt) by Western blot, LLC-PK1 cells. It counts as cell-based, pig. To be noted: ouabain 15 min.
Experiment [8] relates to Akt. The experiment can be described thus: Akt phosphorylation (pAkt) by Western blot, DU145 cells. It counts as cell-based, human. The settings on record: ouabain 15 min. The text has this:
The pAkt was probed by Western blot.

For experiment [9], the system named is Akt. The experiment can be described thus: Akt phosphorylation, PY-17 cells. It is filed as cell-based, pig. To be noted: ouabain, data not shown.
The subject of experiment [10] is Akt. Kind of experiment: Akt phosphorylation (pAkt) by Western blot, C2-9 cells. It is filed as cell-based, pig. The settings on record: ouabain 15 min. As to the method:
The cell lysates were analyzed for pAkt.

In experiment [11] the target is T2, Na/K-ATPase α1 (Homo sapiens, UniProt P05023). The experiment can be described thus: Na/K-ATPase α1 endocytosis by confocal immunostaining, BT20 cells. It is filed as cell-based. Also noted: endogenous in cells; host or cells: BT20. The settings on record: 10 nM ouabain. As for the experimental part:
Na/K-ATPase al was immunostained and visualized using Leica confocal microscope. The red arrows indicate the endocytosed vesicles containing Na/K-ATPase α1.
The cells were fixed with ice-cold methanol for 15 min and blocked with Signal Enhancer from Invitrogen. Monoclonal anti-Na/K-ATPase α1 antibody was then incubated with the cells overnight at 4° C. After 3 washes, a secondary Alexa 488-conjugated anti-mouse antibody was added and incubated for 2 h at room temperature. The coverslip was washed, mounted and imaged using a Leica confocal microscope.

Experiment [12] has as its target T2, Na/K-ATPase α1. The experiment can be described thus: Na/K-ATPase α1 degradation with cycloheximide, BT-20 cells. The settings on record: cycloheximide pre-treatment, 10 nM ouabain for 6, 16 and 24 h. It is filed as cell-based. Further details: endogenous in cells; host or cells: BT20. As for the experimental part:
FIG. 6C: BT20 cells were treated as in panel B and assayed for Na/K-ATPase α1. *p<0.05.

Experiment [13] has as its target T2, Na/K-ATPase α1. Kind of experiment: Na/K-ATPase α1 expression, MDA-MB-435s cells. Further details: endogenous in cells; host or cells: MDA-MB-435s. The settings on record: 5 nM ouabain, 24 h, N=3, P<0.05. It is filed as cell-based. The source says:
A significant reduction in α1 expression was detected (82±2% of control, N=3, P<0.05). Thus, ouabain-induced changes in α1 expression are clearly correlated with its effects on cell growth.

Entries after “also recorded” stand apart in the source; their conditions may differ.

Consider `C[C@@H]1O[C@@H](O[C@H]2C[C@@H](O)[C@]3(CO)[C@H]4[C@H](O)C[C@]5(C)[C@@H](C6=CC(=O)OC6)CC[C@]5(O)[C@@H]4CC[C@]3(O)C2)[C@H](O)[C@H](O)[C@H]1O` [ouabain], for which the “cell growth with ouabain in rapamycin pre-treated cells (MTT)” value with LLC-PK1 cells (LLC-PK1 cells pre-treated with rapamycin, 10 nM ouabain) is given as “significant inhibition of cell growth; also recorded: significant inhibition of cell proliferation”. The “effect on cell growth (MTT)” value is given as “stimulated cell growth” with LLC-PK1 cells (LLC-PK1 cells, ouabain 1 to 50 nM, 24 h) and “significant inhibition of cell growth” in the experiment with BT20 cells [1] (10-50 nM ouabain). In addition, the “stimulatory effect on cell growth (MTT)” value in the experiment on BT20 cells [1] (different concentrations of ouabain) is on record as “failed to detect any stimulatory effect”. In addition, the “growth stimulation (MTT)” value in the experiment on A4-11 cells was “No growth stimulation was detected”. Moreover, the “ouabain-induced cell growth response (MTT)” value with C2-9 cells is listed as “abolished ouabain-induced cell growth stimulation”. For the same molecule, the “block of cell growth (cell counting)” value with BT20 cells [2] (50 nM ouabain) and with DU145 cells was “completely block the growth” each time. Moreover, the “cell number as a function of time” value in the experiment on BT20 cells [2] (10 and 50 nM ouabain) is “significantly reduced the number of BT20 cells”. Moreover, the “ouabain-induced α1 expression” value on Na/K-ATPase α1 [3] is given as “completely blocked ouabain-induced α1 expression”. In addition, on Na/K-ATPase α1 [4], the “induction of α1 expression” value is “three-fold induction”. Also, the “Na/K-ATPase β1 expression” value in the experiment with Na/K-ATPase β1 is “modest increase in β1 expression”. In addition, the “levels of α1 mRNA” value with Na/K-ATPase α1 mRNA [5] and in the experiment with Na/K-ATPase α1 mRNA [6] was “no effect on levels of α1 mRNA” throughout. Further, the Akt phosphorylation result in the experiment with Akt [7] is on record as “stimulated Akt phosphorylation”; in the experiment with Akt [8], “failed to do so”; in the experiment with Akt [9] it was “no effect on Akt phosphorylation”. Further, the “Akt stimulation (pAkt)” value in the experiment with Akt [10] is recorded as “failed to stimulate Akt”. The “endocytosis of Na/K-ATPase α1 (α1-positive vesicles)” value on Na/K-ATPase α1 [11] is “many al-positive vesicles were accumulated”. The “degradation of Na/K-ATPase α1 subunit” value at Na/K-ATPase α1 [12] is “more degradation of al subunit; also recorded: more degradation of the a1 subunit”. In addition, the “Na/K-ATPase α1 expression” value on Na/K-ATPase α1 [13] is recorded as 82±2 % of control.
